Where a name gives a salt, the structure may show the parent alone.
What was measured:
[1] = test system: AsPC-1 human pancreatic adenocarcinoma; test: CellTiter-Glo cancer cell line proliferation assay, AsPC-1; format: cell-based; settings: Homo sapiens, ASPC1, 24 hr
Summary of the method: (§1)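 Cells plated at 4,000/well, grown 24 h at 37 °C/5% CO2, then exposed to compound concentration series (0.5% DMSO final) for 24 h. Viability read by CellTiter-Glo luminescence; IC50 values calculated.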

[2] = target: BA/F3-KRAS(G12D) murine pro-B cell line stably expressing KRAS(G12D) (Homo sapiens, UniProt P01116, G12D, cells depend on it); test: CellTiter-Glo cancer cell line proliferation assay, BA/F3-KRAS(G12D); format: cell-based; settings: 24 hr, read-out: BAF3 at 24 hrs, IC50
Chain of BA/F3-KRAS(G12D) murine pro-B cell line stably expressing KRAS(G12D) (P01116 whole entry G12D): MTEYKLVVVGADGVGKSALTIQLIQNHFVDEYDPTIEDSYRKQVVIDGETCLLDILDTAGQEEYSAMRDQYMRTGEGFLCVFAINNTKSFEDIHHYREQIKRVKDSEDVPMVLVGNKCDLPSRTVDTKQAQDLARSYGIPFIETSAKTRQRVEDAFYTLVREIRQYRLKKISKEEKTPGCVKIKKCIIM
Summary of the method: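 BA/F3 cells expressing KRAS(G12D), 4,000/well in RPMI 1640 + 10% FCS, exposed 24 h at 37 °C to 3-fold dilutions (20 μM to 1.02 nM, 0.5% DMSO). Viability by CellTiter-Glo luminescence; IC50 calculated from the dose-response.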

[3] = test system: A-427 human lung carcinoma; test: CellTiter-Glo cancer cell line proliferation assay, A-427; format: cell-based; settings: Homo sapiens, A-427, 24 hr, read-out: A427 at 24 hrs, IC50
Summary of the method: as §1

KRAS(G12D)/SOS1 = target: T1, KRAS(G12D)/SOS1 (Homo sapiens, UniProt P01116, G12D); test: KRAS(G12D)/SOS1 homogeneous time-resolved fluorescence (HTRF) assay; format: binding; settings: absence of GTP, 4° C. for 3 hr
T1 construct: purchased Cisbio 63ADK000CB16PEG
T1 sequence (P01116 1-188 isoform P01116-2 G12D): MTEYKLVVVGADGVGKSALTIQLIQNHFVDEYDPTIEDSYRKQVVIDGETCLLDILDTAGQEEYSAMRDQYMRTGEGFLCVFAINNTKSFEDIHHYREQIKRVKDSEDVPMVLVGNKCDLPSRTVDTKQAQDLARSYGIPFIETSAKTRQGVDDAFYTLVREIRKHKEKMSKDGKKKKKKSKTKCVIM
Procedure: The test compound was mixed and incubated with reaction components, incubated in a sealed plate at 4° C. for 3 hr and fluorescence was measured using a PerkinElmer Envision plate reader.

SMILES: C#Cc1cccc2cccc(-c3ncc4c(N5CC6CCC(C5)N6)nc(OCC5(CN6CCN(Cc7ccc8c(c7)CN(C7CCC(=O)NC7=O)C8=O)CC6)CC5)nc4c3F)c12 (stereo not shown) [Compound 31, 3-(5-((4-((1-(((4-(3,8-diazabicyclo[3.2.1]octan-3-yl)-7-(8-ethynylnaphthalen-1-yl)-8-fluoropyrido[4,3-d]pyrimidin-2-yl)oxy)methyl)cyclopropyl)methyl)piperazin-1-yl)methyl)-1-oxoisoindolin-2-yl)piperidine-2,6-dione formate]
- IC50 [1]: > 1 µM
- GI50 [2]: > 1 µM
- IC50 [3]: > 1 µM
- IC50 (KRAS(G12D)/SOS1): < 0.1 µM

Reference: US20250018047A1, “METHODS AND COMPOSITIONS FOR TARGETED PROTEIN DEGRADATION” (Ranok Therapeutics (Hangzhou) Co. Ltd., priority 2021, published 2025)
